Experimental data as given in article PMC12398505 (Nature Communications, 2025).

Experiments:
SLCO2A1 E465K mutant = SLCO2A1 E465K mutant (Homo sapiens, UniProt Q92959, E465K); experiment: 6-CF uptake assay, HEK293F cells expressing SLCO2A1 E465K; type: cell-based; details: E465K mutant vs WT
SLCO2A1 C143A mutant = SLCO2A1 C143A mutant (Homo sapiens, UniProt Q92959, C143A); experiment: 6-CF uptake assay, HEK293F cells expressing SLCO2A1 C143A; type: cell-based; details: C143A mutant vs WT
SLCO2A1 R445C mutant = SLCO2A1 R445C mutant (Homo sapiens, UniProt Q92959, R445C); experiment: 6-CF uptake assay, HEK293F cells expressing SLCO2A1 R445C; type: cell-based; details: 50 μM 6-CF
SLCO2A1 Y90A mutant = SLCO2A1 Y90A mutant (Homo sapiens, UniProt Q92959, Y90A); experiment: 6-CF uptake assay, HEK293F cells expressing SLCO2A1 Y90A; type: cell-based; details: 50 μM 6-CF
SLCO2A1 C420F mutant = SLCO2A1 C420F mutant (Homo sapiens, UniProt Q92959, C420F); experiment: 6-CF uptake assay, HEK293F cells expressing SLCO2A1 C420F; type: cell-based; details: C420F mutant vs WT
SLCO2A1 [1] = details: read-out: Km for 6-CF reported in a previous study; cited from earlier work
SLCO2A1 W565F mutant = SLCO2A1 W565F mutant (Homo sapiens, UniProt Q92959, W565F); experiment: 6-CF uptake assay, HEK293F cells expressing SLCO2A1 W565F; type: cell-based; details: 50 μM 6-CF
SLCO2A1 S346A mutant = SLCO2A1 S346A mutant (Homo sapiens, UniProt Q92959, S346A); type: cell-based
SLCO2A1 C448A mutant = SLCO2A1 C448A mutant (Homo sapiens, UniProt Q92959, C448A); experiment: 6-CF uptake assay, HEK293F cells expressing SLCO2A1 C448A; type: cell-based; details: C448A mutant vs WT
human SLCO2A1 = human SLCO2A1 (Homo sapiens, UniProt Q92959); experiment: 6-CF uptake assay in HEK293F cells expressing SLCO2A1 WT
SLCO2A1 [2] = details: read-out: IC50 in competitively inhibiting radioactive PGE2; pH 7.4; cited from earlier work

| Molecule | decrease of 6-CF uptake activity (SLCO2A1 E465K mutant) | reduction of the 6-CF uptake activity (SLCO2A1 C143A mutant) | 6-CF uptake (percentage of SLCO2A1-WT) (SLCO2A1 R445C mutant) [%] | 6-CF uptake (percentage of SLCO2A1-WT) (SLCO2A1 Y90A mutant) [%] | decrease of 6-CF uptake activity (SLCO2A1 C420F mutant) | Km (SLCO2A1 [1]) [µM] | 6-CF uptake (percentage of SLCO2A1-WT) (SLCO2A1 W565F mutant) [%] | increase in 6-CF uptake activity (SLCO2A1 S346A mutant) [fold] | reduction of the 6-CF uptake activity (SLCO2A1 C448A mutant) [%] | IC50 (human SLCO2A1) [nM] | IC50 (6-CF uptake) relative to IC50 (radioactive PGE2, pH 7.4) (human SLCO2A1; IC50 2.21 μM vs 0.17 μM) [fold] | IC50 (SLCO2A1 [2]) [nM] |
| --- | --- | --- | --- | --- | --- | --- | --- | --- | --- | --- | --- | --- |
| 6-Carboxyfluorescein [6-CF] | more than 80% | approximately 80% | 60 | 60 | more than 80% | 270 ± 40.7 | ~50 | 1.5 | ~55 | – | – | – |
| Cc1ccc(C(=O)Nc2ccc(S(=O)(=O)O)c3cc(S(=O)(=O)O)cc(S(=O)(=O)O)c23)cc1NC(=O)c1cccc(NC(=O)Nc2cccc(C(=O)Nc3cc(C(=O)Nc4ccc(S(=O)(=O)O)c5cc(S(=O)(=O)O)cc(S(=O)(=O)O)c45)ccc3C)c2)c1 [suramin] | – | – | – | – | – | – | – | – | – | 2210 ± 370 | 13 | 170 |
